Values quoted from earlier work, collected in patent US20190070181A1, “FORMULATION OF TICAGRELOR OR PHARMACEUTICALLY ACCEPTABLE SALT THEREOF” (Jiangsu Hengrui Medicine Co., Ltd., priority 2017, published 2019).

How the values were obtained:
[1] = not given; remark: listed apart in the source

average t1/2 (in vivo)	solubility in water [1]	dose up to which the pharmacokinetics is linear (in vivo)	median tmax (oral administration)	average recovery of the radiation in feces (radiolabeled ticagrelor, feces)	average recovery of the radiation (radiolabeled ticagrelor, total)	average recovery of the radiation in urine (radiolabeled ticagrelor, urine)	Structure (SMILES)	time the IPA effect can be maintained (platelet aggregation; 180 mg loading dose)	IPA maximum (platelet aggregation; 2-4 hours after 180 mg loading dose)	mean inhibition of platelet aggregation (IPA) (platelet aggregation; 0.5 hour after 180 mg loading dose)
about 9 hours	–	–	–	–	–	–	CCCSc1nc(N[C@@H]2C[C@H]2c2ccc(F)c(F)c2)c2nnn([C@@H]3C[C@H](O)[C@@H](O)[C@H]3O)c2n1 [AR-C124910XX]	–	–	–
about 7 hours	almost insoluble in water	up to 1260 mg	about 1.5 hours	58%	about 84%	26%	CCCSc1nc(N[C@@H]2C[C@H]2c2ccc(F)c(F)c2)c2nnn([C@@H]3C[C@H](OCCO)[C@@H](O)[C@H]3O)c2n1 [ticagrelor, (1S,2S,3R,5S)-3-[7-{[(1R,2S)-2-(3,4-difluorophenyl)cyclopropyl]amino}-5-(propylthio)-3H-[1,2,3]-triazolo[4,5-d]pyrimidin-3-yl]-5-(2-hydroxyethoxy)cyclopentane-1,2-diol]	2 to 8 h	89%	41%
